Test results published in publication PMC9856672, “SGC-CAMKK2-1: A Chemical Probe for CAMKK2” (Cells, 2023).

Experiments:
CAMK1B = target: T1, CAMK1B (Homo sapiens, UniProt Q6P2M8); assay: KINOMEscan at 1 μM, CAMK1B; assay type: binding; details: 1000 nM, read-out: Percent Control
T1 construct: purchased Eurofins DiscoverX KINOMEscan
Source text: (§1) Supplement cells-12-00287-s001.zip/File S2. KinomeScan data for the CAMKK2 probe and negative control.xlsx, sheet "SGC-CAMKK2-1N" | column: Percent Control

ULK1 = target: T2, ULK1 (Homo sapiens, UniProt O75385); assay: KINOMEscan at 1 μM, ULK1; assay type: binding; details: 1000 nM, read-out: Percent Control
T2 construct: purchased Eurofins DiscoverX KINOMEscan
Source text: as §1

ROCK2 = target: T3, ROCK2 (Homo sapiens, UniProt O75116); assay: KINOMEscan at 1 μM, ROCK2; assay type: binding; details: 1000 nM, read-out: Percent Control
T3 construct: purchased Eurofins DiscoverX KINOMEscan
Source text: as §1

CDKL2 = target: T4, CDKL2 (Homo sapiens, UniProt Q92772); assay: KINOMEscan at 1 μM, CDKL2; assay type: binding; details: 1000 nM, read-out: Percent Control
T4 construct: purchased Eurofins DiscoverX KINOMEscan
Source text: as §1

FLT1 = target: T5, FLT1 (Homo sapiens, UniProt P17948); assay: KINOMEscan at 1 μM, FLT1; assay type: binding; details: 1000 nM, read-out: Percent Control
T5 construct: purchased Eurofins DiscoverX KINOMEscan
Source text: as §1

MAP4K2 = target: T6, MAP4K2 (Homo sapiens, UniProt Q12851); assay: KINOMEscan at 1 μM, MAP4K2; assay type: binding; details: 1000 nM, read-out: Percent Control
T6 construct: purchased Eurofins DiscoverX KINOMEscan
T6 sequence (Q12851 whole entry): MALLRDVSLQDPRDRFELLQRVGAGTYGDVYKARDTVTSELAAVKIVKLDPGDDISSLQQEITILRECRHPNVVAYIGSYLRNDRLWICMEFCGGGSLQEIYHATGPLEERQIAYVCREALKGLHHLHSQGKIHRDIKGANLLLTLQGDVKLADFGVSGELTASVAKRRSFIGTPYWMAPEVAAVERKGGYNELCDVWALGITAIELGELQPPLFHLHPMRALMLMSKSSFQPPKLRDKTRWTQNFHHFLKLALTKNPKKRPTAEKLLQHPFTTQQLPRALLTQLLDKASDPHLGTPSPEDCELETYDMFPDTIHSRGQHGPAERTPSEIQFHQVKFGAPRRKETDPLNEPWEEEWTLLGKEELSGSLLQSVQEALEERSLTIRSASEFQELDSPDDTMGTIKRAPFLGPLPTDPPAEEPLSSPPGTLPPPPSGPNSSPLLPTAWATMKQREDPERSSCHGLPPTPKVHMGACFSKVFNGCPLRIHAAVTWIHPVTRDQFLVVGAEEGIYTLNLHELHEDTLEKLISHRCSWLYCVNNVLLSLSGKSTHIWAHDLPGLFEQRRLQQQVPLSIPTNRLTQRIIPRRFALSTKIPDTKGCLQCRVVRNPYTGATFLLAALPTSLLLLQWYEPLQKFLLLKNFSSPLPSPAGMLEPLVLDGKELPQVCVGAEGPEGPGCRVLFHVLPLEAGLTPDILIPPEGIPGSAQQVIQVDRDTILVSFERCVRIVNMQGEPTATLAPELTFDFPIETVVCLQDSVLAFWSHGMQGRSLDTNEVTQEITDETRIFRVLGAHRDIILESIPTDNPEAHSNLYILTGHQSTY
Source text: as §1

PCTK2 = target: T7, PCTK2 (Homo sapiens, UniProt Q00537); assay: KINOMEscan at 1 μM, PCTK2; assay type: binding; details: 1000 nM, read-out: Percent Control
T7 construct: purchased Eurofins DiscoverX KINOMEscan
Source text: as §1

[1] = target: T8, JAK3(JH1domain-catalytic) (Homo sapiens, UniProt P52333); assay: KINOMEscan at 1 μM, JAK3(JH1domain-catalytic); assay type: binding; details: 1000 nM, read-out: Percent Control
T8 construct: JAK3(JH1domain-catalytic); purchased Eurofins DiscoverX KINOMEscan
Source text: as §1

PIK3CA(I800L) = target: T9, PIK3CA(I800L) (Homo sapiens, UniProt P42336, I800L); assay: KINOMEscan at 1 μM, PIK3CA(I800L); assay type: binding; details: 1000 nM, read-out: Percent Control
T9 construct: purchased Eurofins DiscoverX KINOMEscan
Source text: as §1

LIMK1 = target: T10, LIMK1 (Homo sapiens, UniProt P53667); assay: KINOMEscan at 1 μM, LIMK1; assay type: binding; details: 1000 nM, read-out: Percent Control
T10 construct: purchased Eurofins DiscoverX KINOMEscan
Source text: as §1

BIKE = target: T11, BIKE (Homo sapiens, UniProt Q9NSY1); assay: KINOMEscan at 1 μM, BIKE; assay type: binding; details: 1000 nM, read-out: Percent Control
T11 construct: purchased Eurofins DiscoverX KINOMEscan
Source text: as §1

ABL2 = target: T12, ABL2 (Homo sapiens, UniProt P42684); assay: KINOMEscan at 1 μM, ABL2; assay type: binding; details: 1000 nM, read-out: Percent Control
T12 construct: purchased Eurofins DiscoverX KINOMEscan
T12 sequence (P42684 whole entry): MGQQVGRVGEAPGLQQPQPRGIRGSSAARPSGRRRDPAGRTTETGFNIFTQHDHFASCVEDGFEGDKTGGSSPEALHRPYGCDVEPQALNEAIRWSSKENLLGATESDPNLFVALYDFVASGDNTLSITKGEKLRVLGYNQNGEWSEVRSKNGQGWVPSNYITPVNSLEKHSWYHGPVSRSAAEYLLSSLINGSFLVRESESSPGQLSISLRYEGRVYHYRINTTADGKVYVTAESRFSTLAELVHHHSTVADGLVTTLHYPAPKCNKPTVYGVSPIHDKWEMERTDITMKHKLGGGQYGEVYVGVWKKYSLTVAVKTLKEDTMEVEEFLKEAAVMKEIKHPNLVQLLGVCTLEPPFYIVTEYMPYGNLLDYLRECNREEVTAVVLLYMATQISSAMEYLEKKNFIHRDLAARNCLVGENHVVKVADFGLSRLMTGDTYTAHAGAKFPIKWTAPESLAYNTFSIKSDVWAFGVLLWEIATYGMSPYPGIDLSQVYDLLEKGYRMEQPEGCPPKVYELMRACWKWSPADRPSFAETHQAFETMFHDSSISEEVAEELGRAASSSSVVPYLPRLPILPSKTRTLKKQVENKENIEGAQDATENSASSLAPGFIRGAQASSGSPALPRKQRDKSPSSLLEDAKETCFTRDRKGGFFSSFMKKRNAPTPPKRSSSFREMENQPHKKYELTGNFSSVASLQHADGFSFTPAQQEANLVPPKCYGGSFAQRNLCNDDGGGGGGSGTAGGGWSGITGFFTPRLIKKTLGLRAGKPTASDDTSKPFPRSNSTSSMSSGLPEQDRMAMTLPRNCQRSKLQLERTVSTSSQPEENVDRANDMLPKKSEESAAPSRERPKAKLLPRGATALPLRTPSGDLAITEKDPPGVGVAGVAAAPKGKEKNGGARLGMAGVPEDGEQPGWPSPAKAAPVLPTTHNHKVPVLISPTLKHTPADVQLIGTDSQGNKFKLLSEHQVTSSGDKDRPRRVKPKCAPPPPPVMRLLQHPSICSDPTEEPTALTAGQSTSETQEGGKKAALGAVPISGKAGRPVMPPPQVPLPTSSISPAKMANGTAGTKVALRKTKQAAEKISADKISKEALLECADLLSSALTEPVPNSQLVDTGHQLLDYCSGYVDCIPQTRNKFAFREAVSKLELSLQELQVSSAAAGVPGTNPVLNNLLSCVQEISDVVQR
Source text: as §1

ACVR1B = target: T13, ACVR1B (Homo sapiens, UniProt P36896); assay: KINOMEscan at 1 μM, ACVR1B; assay type: binding; details: 1000 nM, read-out: Percent Control
T13 construct: purchased Eurofins DiscoverX KINOMEscan
Source text: as §1

ACVRL1 = target: T14, ACVRL1 (Homo sapiens, UniProt P37023); assay: KINOMEscan at 1 μM, ACVRL1; assay type: binding; details: 1000 nM, read-out: Percent Control
T14 construct: purchased Eurofins DiscoverX KINOMEscan
Source text: as §1

CDK8 = target: T15, CDK8 (Homo sapiens, UniProt P49336); assay: KINOMEscan at 1 μM, CDK8; assay type: binding; details: 1000 nM, read-out: Percent Control
T15 construct: purchased Eurofins DiscoverX KINOMEscan
T15 sequence (P49336 whole entry): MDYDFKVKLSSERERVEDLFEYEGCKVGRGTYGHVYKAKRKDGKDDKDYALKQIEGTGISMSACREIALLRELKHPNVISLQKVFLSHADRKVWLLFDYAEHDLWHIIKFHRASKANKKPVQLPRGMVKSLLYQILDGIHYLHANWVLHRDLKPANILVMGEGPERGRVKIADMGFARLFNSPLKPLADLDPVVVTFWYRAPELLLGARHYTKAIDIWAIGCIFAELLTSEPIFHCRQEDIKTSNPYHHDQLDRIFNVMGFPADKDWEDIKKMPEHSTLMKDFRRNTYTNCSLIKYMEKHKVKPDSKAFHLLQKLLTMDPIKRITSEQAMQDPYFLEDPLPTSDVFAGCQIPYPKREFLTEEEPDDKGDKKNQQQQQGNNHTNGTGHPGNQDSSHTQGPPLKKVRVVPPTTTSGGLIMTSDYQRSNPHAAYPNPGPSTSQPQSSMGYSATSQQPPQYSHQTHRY
Source text: as §1

CDKL5 [2] = target: T16, CDKL5 (Homo sapiens, UniProt O76039); assay: KINOMEscan at 1 μM, CDKL5; assay type: binding; details: 1000 nM, read-out: Percent Control
T16 construct: purchased Eurofins DiscoverX KINOMEscan
T16 sequence (O76039 whole entry): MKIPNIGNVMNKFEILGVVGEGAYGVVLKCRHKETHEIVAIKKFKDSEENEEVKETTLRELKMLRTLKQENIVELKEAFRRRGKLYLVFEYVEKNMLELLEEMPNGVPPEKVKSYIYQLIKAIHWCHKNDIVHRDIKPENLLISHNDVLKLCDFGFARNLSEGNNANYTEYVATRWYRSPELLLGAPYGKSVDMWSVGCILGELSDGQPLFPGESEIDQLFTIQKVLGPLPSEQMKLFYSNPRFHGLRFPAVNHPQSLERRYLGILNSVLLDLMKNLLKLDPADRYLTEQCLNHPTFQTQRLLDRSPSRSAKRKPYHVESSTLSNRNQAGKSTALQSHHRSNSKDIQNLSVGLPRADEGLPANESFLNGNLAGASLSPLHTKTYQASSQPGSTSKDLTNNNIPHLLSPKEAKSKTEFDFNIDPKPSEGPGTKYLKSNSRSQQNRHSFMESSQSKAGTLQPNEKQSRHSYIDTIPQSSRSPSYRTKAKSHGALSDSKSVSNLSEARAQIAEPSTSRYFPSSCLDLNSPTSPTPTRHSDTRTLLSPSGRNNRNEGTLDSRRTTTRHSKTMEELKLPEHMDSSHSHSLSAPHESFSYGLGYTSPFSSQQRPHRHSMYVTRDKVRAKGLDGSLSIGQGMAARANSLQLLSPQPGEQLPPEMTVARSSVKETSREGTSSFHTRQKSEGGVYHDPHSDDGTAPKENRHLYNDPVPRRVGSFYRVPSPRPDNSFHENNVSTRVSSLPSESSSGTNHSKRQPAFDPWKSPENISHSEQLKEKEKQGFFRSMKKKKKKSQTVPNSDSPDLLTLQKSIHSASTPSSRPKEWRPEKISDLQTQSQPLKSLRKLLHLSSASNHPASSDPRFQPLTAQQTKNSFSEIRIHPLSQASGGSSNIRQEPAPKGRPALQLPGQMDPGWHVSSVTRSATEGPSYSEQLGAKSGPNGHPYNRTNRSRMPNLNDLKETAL
Source text: as §1

FLT3(D835Y) = target: T17, FLT3(D835Y) (Homo sapiens, UniProt P36888, D835Y); assay: KINOMEscan binding assay at 1 μM, FLT3(D835Y); details: Compound Concentration 1000 nM; read-out: Percent Control
T17 construct: purchased Eurofins DiscoverX KINOMEscan
Source text: as §1

PRKCD = target: T18, PRKCD (Homo sapiens, UniProt Q05655); assay: KINOMEscan binding assay at 1 μM, PRKCD; details: Compound Concentration 1000 nM; read-out: Percent Control
T18 construct: purchased Eurofins DiscoverX KINOMEscan
Source text: as §1

MAP4K3 = target: T19, MAP4K3 (Homo sapiens, UniProt Q8IVH8); assay: KINOMEscan 1 μM, MAP4K3; assay type: binding; details: 1000 nM; Entrez MAP4K3; read-out: Percent Control
T19 construct: purchased Eurofins DiscoverX KINOMEscan
Source text: (§2) Supplement cells-12-00287-s001.zip/File S2. KinomeScan data for the CAMKK2 probe and negative control.xlsx, sheet "SGC-CAMKK2-1" | column: Percent Control

CLK2 = target: T20, CLK2 (Homo sapiens, UniProt P49760); assay: KINOMEscan 1 μM, CLK2; assay type: binding; details: 1000 nM; Entrez CLK2; read-out: Percent Control
T20 construct: purchased Eurofins DiscoverX KINOMEscan
T20 sequence (P49760 whole entry): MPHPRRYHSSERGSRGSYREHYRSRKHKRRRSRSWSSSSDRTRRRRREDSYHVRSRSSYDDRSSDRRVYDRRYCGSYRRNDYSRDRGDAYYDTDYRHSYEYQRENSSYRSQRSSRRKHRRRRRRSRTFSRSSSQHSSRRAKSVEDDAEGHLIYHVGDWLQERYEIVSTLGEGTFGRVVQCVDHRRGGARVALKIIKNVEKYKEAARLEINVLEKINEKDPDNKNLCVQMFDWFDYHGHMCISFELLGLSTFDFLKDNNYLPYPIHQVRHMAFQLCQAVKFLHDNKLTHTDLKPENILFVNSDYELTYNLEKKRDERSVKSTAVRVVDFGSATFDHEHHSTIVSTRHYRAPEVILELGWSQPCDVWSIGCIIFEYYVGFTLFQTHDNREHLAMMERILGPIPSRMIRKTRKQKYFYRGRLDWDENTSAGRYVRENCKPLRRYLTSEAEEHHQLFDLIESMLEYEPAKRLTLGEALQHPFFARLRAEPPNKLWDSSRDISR
Source text: as §2

CSNK1A1L = target: T21, CSNK1A1L (Homo sapiens, UniProt Q8N752); assay: KINOMEscan 1 μM, CSNK1A1L; assay type: binding; details: 1000 nM; Entrez CSNK1A1L; read-out: Percent Control
T21 construct: purchased Eurofins DiscoverX KINOMEscan
T21 sequence (Q8N752 whole entry): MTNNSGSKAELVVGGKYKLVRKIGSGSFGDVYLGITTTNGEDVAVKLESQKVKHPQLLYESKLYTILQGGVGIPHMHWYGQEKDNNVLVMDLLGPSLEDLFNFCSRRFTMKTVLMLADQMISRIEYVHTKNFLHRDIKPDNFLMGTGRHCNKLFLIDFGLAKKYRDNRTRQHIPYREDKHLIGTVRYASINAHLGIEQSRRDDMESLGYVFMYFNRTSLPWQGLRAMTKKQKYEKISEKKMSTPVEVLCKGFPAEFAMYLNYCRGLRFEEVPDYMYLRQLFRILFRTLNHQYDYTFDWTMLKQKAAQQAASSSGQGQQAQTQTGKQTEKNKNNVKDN
Source text: as §2

MST2 = target: T22, MST2 (Homo sapiens, UniProt Q13188); assay: KINOMEscan 1 μM, MST2; assay type: binding; details: 1000 nM; Entrez STK3; read-out: Percent Control
T22 construct: purchased Eurofins DiscoverX KINOMEscan
Source text: as §2

PDPK1 = target: T23, PDPK1 (Homo sapiens, UniProt O15530); assay: KINOMEscan 1 μM, PDPK1; assay type: binding; details: 1000 nM; Entrez PDPK1; read-out: Percent Control
T23 construct: purchased Eurofins DiscoverX KINOMEscan
T23 sequence (O15530 whole entry): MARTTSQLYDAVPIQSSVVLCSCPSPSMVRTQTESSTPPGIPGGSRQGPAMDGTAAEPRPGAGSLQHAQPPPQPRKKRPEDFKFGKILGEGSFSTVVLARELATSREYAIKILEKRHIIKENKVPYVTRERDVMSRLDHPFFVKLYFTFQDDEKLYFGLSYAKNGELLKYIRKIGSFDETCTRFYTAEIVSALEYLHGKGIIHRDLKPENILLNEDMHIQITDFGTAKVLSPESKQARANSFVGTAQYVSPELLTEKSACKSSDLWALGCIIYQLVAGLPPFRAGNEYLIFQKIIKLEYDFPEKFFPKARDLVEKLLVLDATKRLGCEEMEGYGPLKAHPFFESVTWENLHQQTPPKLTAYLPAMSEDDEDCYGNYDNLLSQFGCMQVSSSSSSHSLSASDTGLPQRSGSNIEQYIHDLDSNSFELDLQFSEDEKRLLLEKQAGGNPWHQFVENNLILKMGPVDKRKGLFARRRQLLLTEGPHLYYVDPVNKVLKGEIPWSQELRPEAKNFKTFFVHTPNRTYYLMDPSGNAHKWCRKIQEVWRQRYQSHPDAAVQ
Source text: as §2

CDK11 = target: T24, CDK11 (Homo sapiens, UniProt Q9BWU1); assay: KINOMEscan 1 μM, CDK11; assay type: binding; details: 1000 nM; Entrez CDK19; read-out: Percent Control
T24 construct: purchased Eurofins DiscoverX KINOMEscan
Source text: as §2

[3] = target: T25, ABL1(M351T)-phosphorylated (Homo sapiens, UniProt P00519, M351T); assay: KINOMEscan 1 μM, ABL1(M351T)-phosphorylated; assay type: binding; details: 1000 nM; Entrez ABL1; read-out: Percent Control
T25 construct: purchased Eurofins DiscoverX KINOMEscan
Source text: as §2

AURKB = target: T26, AURKB (Homo sapiens, UniProt Q96GD4); assay: KINOMEscan 1 μM, AURKB; assay type: binding; details: 1000 nM; Entrez AURKB; read-out: Percent Control
T26 construct: purchased Eurofins DiscoverX KINOMEscan
Source text: as §2

CDKL5 [4] = target: T16, CDKL5; assay: KINOMEscan 1 μM, CDKL5; assay type: binding; details: 1000 nM; Entrez CDKL5; read-out: Percent Control
Source text: as §2

CLK3 = target: T27, CLK3 (Homo sapiens, UniProt P49761); assay: KINOMEscan 1 μM, CLK3; assay type: binding; details: 1000 nM; Entrez CLK3; read-out: Percent Control
T27 construct: purchased Eurofins DiscoverX KINOMEscan
Source text: as §2

CSNK1G1 = target: T28, CSNK1G1 (Homo sapiens, UniProt Q9HCP0); assay: KINOMEscan 1 μM, CSNK1G1; assay type: binding; details: 1000 nM; Entrez CSNK1G1; read-out: Percent Control
T28 construct: purchased Eurofins DiscoverX KINOMEscan
Source text: as §2

KIT(V559D,V654A) = target: T29, KIT(V559D,V654A) (Homo sapiens, UniProt P10721, V559D/V654A); assay: KINOMEscan 1 μM, KIT(V559D,V654A); assay type: binding; details: 1000 nM; Entrez KIT; read-out: Percent Control
T29 construct: purchased Eurofins DiscoverX KINOMEscan
Source text: as §2

MET(M1250T) = target: T30, MET(M1250T) (Homo sapiens, UniProt P08581, M1250T); assay: KINOMEscan 1 μM, MET(M1250T); assay type: binding; details: 1000 nM; Entrez MET; read-out: Percent Control
T30 construct: purchased Eurofins DiscoverX KINOMEscan
Source text: as §2

PYK2 = target: T31, PYK2 (Homo sapiens, UniProt Q14289); assay: DiscoverX KINOMEscan binding assay at 1 μM, PYK2; details: PYK2 (PTK2B); Compound Concentration 1000 nM; read-out: Percent Control
T31 construct: purchased Eurofins DiscoverX KINOMEscan
Source text: as §2

SRPK2 = target: T32, SRPK2 (Homo sapiens, UniProt P78362); assay: DiscoverX KINOMEscan binding assay at 1 μM, SRPK2; details: Compound Concentration 1000 nM, read-out: Percent Control
T32 construct: purchased Eurofins DiscoverX KINOMEscan
Source text: as §2

Compound: O=C(O)c1ccc(-c2coc3ncc(-c4ccccc4)cc23)cc1Cl [SGC-CAMKK2-1N (UNC-YL-83)]
- remaining binding at 1 µM (CAMK1B): 61%
- remaining binding at 1 µM (ULK1): 66%
- remaining binding at 1 µM (ROCK2): 70%
- remaining binding at 1 µM (CDKL2): 74%
- remaining binding at 1 µM (FLT1): 76%
- remaining binding at 1 µM (MAP4K2): 77%
- remaining binding at 1 µM (PCTK2): 81%
- remaining binding at 1 µM [1]: 87%
- remaining binding at 1 µM (PIK3CA(I800L)): 87%
- remaining binding at 1 µM (LIMK1): 88%
- remaining binding at 1 µM (BIKE): 94%
- remaining binding at 1 µM (ABL2): 100%
- remaining binding at 1 µM (ACVR1B): 100%
- remaining binding at 1 µM (ACVRL1): 100%
- remaining binding at 1 µM (CDK8): 100%
- remaining binding at 1 µM (CDKL5 [2]): 100%
- remaining binding at 1 µM (FLT3(D835Y)): 100%
- remaining binding at 1 µM (PRKCD): 100%

Compound: Cc1cccc(-c2cnc3occ(-c4ccc(C(=O)O)c(C5CCCC5)c4)c3c2)c1 [SGC-CAMKK2-1 (YL-36)]
- remaining binding at 1 µM (MAP4K3): 78%
- remaining binding at 1 µM (CLK2): 79%
- remaining binding at 1 µM (CSNK1A1L): 88%
- remaining binding at 1 µM (MST2): 95%
- remaining binding at 1 µM (PDPK1): 95%
- remaining binding at 1 µM (CDK11): 98%
- remaining binding at 1 µM [3]: 100%
- remaining binding at 1 µM (AURKB): 100%
- remaining binding at 1 µM (CDKL5 [4]): 100%
- remaining binding at 1 µM (CLK3): 100%
- remaining binding at 1 µM (CSNK1G1): 100%
- remaining binding at 1 µM (KIT(V559D,V654A)): 100%
- remaining binding at 1 µM (MET(M1250T)): 100%
- remaining binding at 1 µM (PYK2): 100%
- remaining binding at 1 µM (SRPK2): 100%
